Assay results reported in US20050148523A1, “Method of treating HIV infection in atazanavir-resistant patients using a combination of atazanavir and another protease inhibitor” (priority 2003, published 2005).

Experiments:
[1] = tested on: HIV-1 in treatment naive patients; test: Clinical study AI424-034, virological outcomes and resistance; type: in vivo, human; conditions: study 034
Excerpt: (§1) Study Population. Viral samples (baseline and on-treatment, where available) were obtained from patients who experienced virologic failure while enrolled in studies AI424-007/041 [12] (ATV+d4T and ddI), AI424-008/044 [13, 14] (ATV+d4T and 3TC) and AI424-034 [9] (ATV or EFV in combination with ZDV and 3TC). […] In general, virologic failure specimens were selected for further resistance evaluation only if they contained >1,000 copies/mL HIV-1 RNA and there was no indication that the specimen came from a patient at a time of transient non-adherence to study drug(s). […] For non-responders, samples from week 16 (or 24) were tested. Drug adherence was determined from pill counts of returned study medications at each scheduled visit.
(§2) ATV resistance was defined as ≧2-fold decrease in ATV susceptibility from baseline, a Fold Change (FC) of ≧2.5 (relative to the Nl4-3 reference strain), or evidence of an isoleucine (Ile) to leucine (Leu) change at amino acid residue 50 (I50L). Resistance levels for NFV and EFV were also defined as a FC reaching 2.5.

[2] = tested on: clinical isolates containing a D30N substitution; test: PhenoSense phenotypic susceptibility of clinical isolates containing D30N; type: cell-based, HIV-1; conditions: 75 D30N containing isolates, FIG. 3
Procedure: (§3) Drug Susceptibility Assays. Clinical isolates were subjected to phenotypic (PhenoSense™) and genotypic (GeneSeq™) analysis by Virologic, Inc. as described elsewhere.
Comparative Studies of I50L and D30N Containing Viruses. […] Comparative studies were performed on the 18 phenotyped viruses containing an I50L and 75 clinical isolates containing a D30N substitution without evidence of cross-resistance (FC≧2.5) to other PIs.

[3] = tested on: clinical isolates containing an I50L substitution (and their baseline isolates); test: PhenoSense phenotypic susceptibility of clinical isolates from ATV-treated patients who developed I50L; type: cell-based, HIV-1; conditions: for Subceptibility, Fold Change in EC50 relative to reference strain: Subject 169, Week 114; for median increase in susceptibility from baseline: on emergence of I50L, n=4 to 15; for percentage of I50L isolates with susceptibility (FC) 0.4-fold or lower: relative to the reference strain
Excerpt: as §1, §3

[4] = tested on: clinical isolates from patients on NFV regimens; conditions: isolates containing D30N as the only primary PI mutation; cited from earlier work
[5] = tested on: HIV-1 variants containing I50V; conditions: in vitro; cited from earlier work
[6] = tested on: recombinant HIV-1 viruses (NL4-3, RF, LAI) in MT-2 cells; test: MT-2 cell susceptibility assay of recombinant viruses; type: cell-based; conditions: all three viral strains, I50L or I50L/A71V introduced by site-directed mutagenesis
Procedure: Cells and Viruses. MT-2 cells, HIV-1 RF, HIV1-LAI, and the HIV-1 NL4-3 proviral clones were obtained through the AIDS Research and Reference Reagent Program, National Institutes of Health. MT-2 cells were cultured in RPMI 1640 medium supplemented with 10% fetal bovine serum, 2 mM L-glutamine, and 10 mM Hepes buffer. HIV-1 viruses were generated by transient transfection of the proviral DNA into Human Embryonic Kidney 293 cells using Lipofectamine reagents (Gibco BRL). The viruses were harvested 72 hr post-transfection, amplified in MT-2 cells, and titered in the same cells using a virus yield assay.
Recombinant HIV-1 Variants and Chimeric NL4-3 Proviral Clones. HIV-1 strains with defined substitutions in the protease gene were generated by QuikChange® site-directed mutagenesis as recommended by the manufacturer (Stratagene). Recombinant NL4-3 and LAI proviral clones containing the wild-type and mutant protease genes from RF and clinical isolates were constructed by replacing the SseI/ApaI fragment of pNL4-3 with the appropriate SseI/ApaI protease fragments.
Recombinant viruses (generated separately from those made for PhenoSense assays) were tested in an MT-2 cell susceptibility assay at Bristol Myers Squibb. MT-2 cells were infected with recombinant viruses at a multiplicity of infection (MOI) of 0.005 50% tissue culture infective doses (TCID50)/cell followed by incubation in the presence or absence of serially diluted protease inhibitors for 4 to 7 days. Virus yields were quantified using a RT assay as previously described. The results from at least four independent experiments were used to calculate the EC50.

[7] = tested on: HIV-1 in treatment naive patients; test: Clinical study AI424-007/041, virological outcomes and resistance; type: in vivo, human; conditions: study 007/041
Excerpt: as §1, §2

[8] = tested on: HIV-1 in treatment naive patients; test: Clinical study AI424-008/044, virological outcomes and resistance; type: in vivo, human; conditions: study 008/044
Excerpt: as §1, §2

| Structure (SMILES) | median FC [2] | Susceptibility, Fold Change in EC50 relative to reference strain ([3]; Subject 076, Week 80) | Susceptibility, Fold Change in EC50 relative to reference strain ([3]; Subject 076, Week 92) | Susceptibility, Fold Change in EC50 relative to reference strain ([3]; Subject 100, Week 1.7) | Susceptibility, Fold Change in EC50 relative to reference strain ([3]; Subject 169, Week 0.1) | Susceptibility, Fold Change in EC50 relative to reference strain ([3]; Subject 169, Week 90) | Susceptibility, Fold Change in EC50 relative to reference strain ([3]; Subject 169, Week 102) | Subceptibility, Fold Change in EC50 relative to reference strain [3] | Susceptibility, Fold Change in EC50 relative to reference strain ([3]; Subject 362, Week 0.1) | Susceptibility, Fold Change in EC50 relative to reference strain ([3]; Subject 362, Week 108) | percentage of baseline isolates exhibiting a FC≦0.4 [3] | median increase in susceptibility from baseline [3] | percentage of I50L isolates with susceptibility (FC) 0.4-fold or lower [3] | change in susceptibility [6] | also measured |
| --- | --- | --- | --- | --- | --- | --- | --- | --- | --- | --- | --- | --- | --- | --- | --- |
| O=C1Nc2ccc(Cl)cc2[C@@](C#CC2CC2)(C(F)(F)F)O1 [EFV, efavirenz] | – | – | – | – | – | – | – | – | – | – | – | – | – | – | Virologic Failures (%) [1]: 17%; Virologic Failures, number [1]: 69 |
| CC(C)(C)NC(=O)[C@@H]1CN(Cc2cccnc2)CCN1C[C@@H](O)C[C@@H](Cc1ccccc1)C(=O)N[C@H]1c2ccccc2C[C@H]1O [IDV, indinavir] | small median decreases in susceptibility | 0.4 Fold Change | 0.5 Fold Change | 1.6 Fold Change | 0.8 Fold Change | 0.5 Fold Change | 0.4 Fold Change | 0.4 Fold Change | 1.3 Fold Change | 0.7 Fold Change | 0% | 2.0 fold | 58% | enhanced susceptibility | median FC ([3]; {}): ≤ 0.4; susceptibility [4]: remained susceptible; effect of I50V on susceptibility [5]: increased susceptibility |
| Cc1c(O)cccc1C(=O)N[C@@H](CSc1ccccc1)[C@H](O)CN1C[C@H]2CCCC[C@H]2C[C@H]1C(=O)NC(C)(C)C [NFV, nelfinavir] | resistance | 0.4 Fold Change | 0.6 Fold Change | 2.1 Fold Change | 1.0 Fold Change | 0.5 Fold Change | 0.5 Fold Change | 0.7 Fold Change | 2.3 Fold Change | 1.1 Fold Change | 0% | 1.6 fold | 33% | enhanced susceptibility | Virologic Failures (%) [7]: 23%; Virologic Failures, number [7]: 18; Virologic Failures (%) [8]: 30%; Virologic Failures, number [8]: 27 |
